Assay results taken from BindingDB's records for doi:10.1021/acschembio.6b00382 (Institut de Ge´ne´tique et de Biologie Mole´culaire et …, 2016).

Columns and labels:
Details in all cases: pH 7
[1] = biological target: Aldo-keto reductase family 1 member B10 [K125R,V301L] (Homo sapiens, UniProt O60218, K125R/V301L); assay: IC50-Activity Assay (AR)
Description: (§1) The IC50-activity assays were carried out on the basis of the quantification of the NADPH consumption that takes place when the enzyme catalyzes the conversion of the aldehyde substrate into the alcohol product. […] The final reaction volume was 600 μL per reaction. All compounds were dissolved in dimethyl sulfoxide (DMSO), and the corresponding solution was added to the cell to be assayed in a final concentration of 2% (v/v) DMSO and incubated for 5 min at 25 °C prior to the addition of the substrate. The reaction was initiated by the addition of 1 mM glyceraldehyde, and the decrease in optical density at 340 nm was monitored for at least 3 min at 25 °C in a UV−vis spectrophotometer (Cary 400 Bio (Varian)).

[2] = biological target: T1, Aldo-keto reductase family 1 member B10 (Homo sapiens, UniProt O60218); assay: IC50-Activity Assay (AKR1B10)
T1 sequence (O60218 whole entry): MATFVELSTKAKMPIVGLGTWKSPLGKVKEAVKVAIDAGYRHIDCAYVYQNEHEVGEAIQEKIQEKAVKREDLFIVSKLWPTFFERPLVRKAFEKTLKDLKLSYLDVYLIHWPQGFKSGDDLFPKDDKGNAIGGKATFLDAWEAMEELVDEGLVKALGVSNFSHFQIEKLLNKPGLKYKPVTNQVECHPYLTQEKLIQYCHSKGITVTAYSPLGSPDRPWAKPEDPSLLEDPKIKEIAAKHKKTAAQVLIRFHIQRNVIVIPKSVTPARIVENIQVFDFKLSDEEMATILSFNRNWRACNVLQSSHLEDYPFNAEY
Description: as §1, with “60” for “1”, “glyceraldehyde and 0.2 mM pyridine-3-aldehyde,” for “glyceraldehyde,”, “opticaldensity” for “optical density”

[3] = biological target: T1, Aldo-keto reductase family 1 member B10; assay: IC50-Activity Assay (AR)
Description: as §1

[4] = biological target: Aldo-keto reductase family 1 member B1 (Homo sapiens, UniProt P15121); assay: IC50-Activity Assay (AR)
Description: as §1

Aldo-keto reductase family 1 member B10 [K125R,V301L], sequence (O60218 whole entry K125R/V301L): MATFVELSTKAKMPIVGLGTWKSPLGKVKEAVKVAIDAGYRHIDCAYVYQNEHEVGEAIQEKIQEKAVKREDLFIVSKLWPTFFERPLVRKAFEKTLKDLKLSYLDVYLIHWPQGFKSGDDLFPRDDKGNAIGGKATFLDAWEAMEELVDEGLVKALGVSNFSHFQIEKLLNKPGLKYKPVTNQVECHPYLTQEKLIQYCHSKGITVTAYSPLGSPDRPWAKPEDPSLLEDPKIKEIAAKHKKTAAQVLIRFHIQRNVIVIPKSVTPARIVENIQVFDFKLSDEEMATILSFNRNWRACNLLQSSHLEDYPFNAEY

| IC50 [1] | IC50 [2] | IC50 [3] | IC50 [4] | SMILES |
| --- | --- | --- | --- | --- |
| 4400 nM | 2700 nM | 4.4 µM | – | O=C(O)COc1cc(Cl)ccc1C(=O)NCc1ccc(Br)cc1F [IDD388] |
| – | – | – | 0.003 µM | O=C(O)COc1cc(F)ccc1C(=S)NCc1ccc(Br)cc1F [IDD594] |
| – | 1.2 nM | – | – | COc1ccc2c(C(=S)N(C)CC(=O)O)cccc2c1C(F)(F)F [N-{[6-methoxy-5-(trifluoromethyl)naphthalen-1-yl]carbonothioyl}-N-methylglycine] |

The remaining lines, values behind:

| SMILES | IC50 [1] | IC50 [2] | IC50 [3] | IC50 [4] |
| --- | --- | --- | --- | --- |
| COc1c(Br)c(Br)c(Br)c(Br)c1Cn1c(=O)ccn(CC(=O)O)c1=O [2-(2,4-dioxo-3-(2,3,4,5-tetrabromo-6-methoxybenzyl)-3,4-dihydropyrimidin-1(2H)-yl)acetic acid] | 450 nM | – | – | – |
| O=C(O)COc1cc(Cl)ccc1C(=O)NCc1c(Br)cc(Br)cc1Br [2-(5-chloro-2-((2,4,6-tribromobenzyl)carbamoyl)phenoxy)acetic acid] | 1000 nM | 430 nM | 1 µM | 21.4 µM |
| O=C(O)COc1cc(Cl)ccc1C(=O)NCc1c(Br)c(Br)c(Br)c(Br)c1Br [2-(5-chloro-2-(((perbromophenyl)methyl)carbamoyl)phenoxy)acetic acid] | 80 nM | 30 nM | 0.08 µM | 21.7 µM |
| O=C(O)COc1cc(Cl)ccc1C(=O)NCc1ccc(Br)cc1 [MK181] | 4500 nM | 3700 nM | 4.5 µM | – |
| O=C(O)COc1cc(Cl)ccc1C(=O)NCc1c(F)c(F)c(Br)c(F)c1F [MK319] | 7000 nM | 3400 nM | 7 µM | – |
| CC1=C(CC(=O)O)c2cc(F)ccc2/C1=C\c1ccc([S@@+](C)[O-])cc1 [cis-5-Fluoro-2-methyl-1-((p-methylsulfinyl)benzylidene)indene-3-acetic acid] | 2690 nM | – | – | – |
